Laboratory results: patent US20100075917A1, “THIONUCLEOSIDES AND PHARMACEUTICAL APPLICATIONS” (priority 2006, published 2010)
Where two headings read alike, the source gives them in different places.

What was measured:
[1] = test system: L1210 cell line (mouse lymphoma); assay: Incorporation of tritiated thymidine; assay type: cell-based; conditions: L1210 cells
Protocol: These tests are performed on the L1210 cell line (mouse lymphoma) according to a published protocol (Lepoivre M., Flaman J.-M., Bobé P., Lemaire G., Henry Y. J. Biol. Chem., 1994, 269, 21891-21897). The wells are inoculated (10 000 cells per well) and, after culturing for 72 hours, [^3H]thymidine and the test compound are added to the culture medium. After incubation for 8 hours, the DNA is separated from the other cell constituents and the amount of labeled thymidine incorporated is quantified and compared with a control (without compound).
The effects of compound 1 at 50 μM and 200 μM, respectively, on the concentrations of tritiated thymidine incorporated are expressed as a percentage of the control.

[2] = test system: MCF-7 mammary carcinoma cells; assay: Cytotoxicity (MTT) on MCF-7 cells; assay type: cell-based, human; conditions: Homo sapiens; for CC50: MCF7, read-out: CC50 MCF-7
Protocol: (§1) The cytotoxic effect of a compound is studied on human CEM cells and MCF-7 mammary carcinoma cells that are or are not resistant to gemcitabine, which is an anticancer nucleoside used in chemotherapy.
(§2) The cytotoxicity (CC50) was estimated by measuring the reduction of 3-(4,5-dimethylthiazol-2-yl)-2,5-diphenyltetrazolium bromide (MTT), which is converted into insoluble violet formazan. To do this, 100 000 cells (human CEM-SS or MCF-7 lines) are inoculated per well in 100 μl of culture medium, in 96-well microtitration plates. After 24 hours, the test products are added in 100 μl and incubation is continued for 48 to 72 hours. MIT is then added in a proportion of 20 μl of a solution at 5 mg/ml in PBS. Three hours later, 100 μl of a DMF/acetic acid/HCl/SDS (sodium dodecyl sulfate) solution are added. After 3 hours at 37° C., the absorbance of the formazan is measured at 590 nm and compared with that of the untreated control.

[3] = test system: human CEM cells; assay: Cytotoxicity (MTT) on CEM cells; assay type: cell-based; conditions: for CC50: read-out: CC50 CEM; for EC50: Tables 4 and 6, CEM cells, some values 'then plateau'
Protocol: as §1, §2

[4] = test system: human CEM-SS T lymphoma cells; assay: Measurement of the intracellular concentrations of 2′-deoxyribonucleotides (dNTP); assay type: cell-based; conditions: 24 hours; for activity at 50 µM: 1 at 50 μM
Protocol: The protocol adopted for performing this test (Roy, B.; Beuneu, C.; Roux, P.; Buc, H.; Lemaire, G.; Lepoivre, M. Simultaneous determination of pyrimidine or purine deoxyribonucleoside triphosphates using a polymerase assay. Anal. Biochem., 1999, 269, 403-409) consists in culturing human CEM-SS T lymphoma cells in the presence of the test compounds. The concentrations of dNTP and in particular of dATP are measured after 24 hours of incubation. dATP is the nucleoside triphosphate whose concentration decreases the most during tests with standard ribonucleotide reductase inhibitors such as hydroxyurea, which was used as control.
The quantification is related to the number of live cells counted after staining with trypan blue or related to the initial number of cells (approximately two million). It is measured as a percentage relative to a control manipulation.
The effects of compound 1 at 50 μM on the concentrations of 2′-deoxynucleoside 5′-triphosphates (dNTP) necessary for DNA synthesis are calculated from the dNTP concentrations measured after 24 hours and determined in pmol of dNTP/million cells. The percentages are expressed as a percentage of the control with an average of four controls, taking the counts into account, and are compared with that of an anticancer agent, hydroxyurea (HU), tested at a concentration of 63 μM.

[5] = test system: MCF-7* (MCF-7 mammary carcinoma cells resistant to gemcitabine); assay: Cytotoxicity (MTT) on gemcitabine-resistant MCF-7 cells; assay type: cell-based, human; conditions: listed as printed twice per table
Protocol: as §1, §2
Compounds 1 and 3 to 8 corresponding to formula (II) above; compound 2 corresponding to the non-silyl compound, it corresponds to formula (II) above in which R1 represents CH2CH2CH(CH3)2 and was also tested to observe a possible effect of the silicon. These compounds were evaluated for their cytotoxicity on human CEM cells and MCF-7 mammary carcinoma cells resistant (MCM-7*) or non-resistant (MCF-7) to gemcitabine, which is an anticancer nucleoside used in chemotherapy.

[6] = test system: HIV-2; assay: Anti-HIV-2 effect in CEM/TK− cells; assay type: cell-based; conditions: Human immunodeficiency virus 2, CEM-TK(-); Third Series; CEM cells having no thymidine kinase activity
Protocol: (§3) The evaluation test is described in Roy, B.; Chambert, S.; Lepoivre M.; Aubertin, A.-M.; Balzarini, J.; Décout, J.-L., Deoxyribonucleoside 2′- or 3′-mixed disulfides: prodrugs to target ribonucleotide reductase and/or to inhibit HIV reverse transcription. J. Med. Chem. 2003, 46, 2565-2568.
(§4) The toxicity and the antiviral activities were measured at different concentrations, and their evolution as a function of the concentration makes it possible to evaluate: • the concentration at which 50% of the cells are dead in the absence of virus (CC 50) for each of the test compounds, from the change in absorbance at 540 nm of formazan as a function of the concentration of test compound, • the concentration of compound that leads to a 50% reduction in the activity of viral reverse transcriptase (EC 50). This concentration is determined from the curve representing the change in the percentage of “remaining reverse transcriptase” activity (defined as being the ratio of the activity of the reverse transcriptase in the presence of the test compound to that of the untreated cells) as a function of the concentration of test compound.
(§5) EC50: concentration required to afford 50% protection to the CEM cells against the cytopathogenicity of HIV;
• Effect in CEM not expressing thymidine kinase activity (CEM/TK^−, cells having no thymidine kinase activity).

[7] = test system: human CEM T4 lymphocytes; assay: Cytotoxic effect on CEM T4 lymphocytes; assay type: cell-based; parameters: unit not given beside the values; conditions: Tables 5 and 7, CEM cells
[8] = test system: L1210/0 murine leukemia cells; assay: Cytotoxic effect on L1210/0 cells; assay type: cell-based; conditions: Tables 5 and 7, L1210/0 cells
[9] = test system: Moloney sarcoma virus; assay: Inhibition of transformation of mouse embryo C3H/3T3 cells induced by Moloney sarcoma virus; assay type: cell-based; parameters: MIC (minimum inhibitory concentration): unit not given here; conditions: for EC50: C3H/3T3, read-out: EC50 (effective concentration 50%); for MIC (minimum inhibitory concentration): C3H/3T3 cells, a second bound is given in brackets for some compounds
Description: 2.2. Inhibitory Effect on the Transformation of Mouse Embryo C3H/3T3 Cells Induced by Moloney Sarcoma Virus (Model of Infection with HIV)

[10] = test system: FM3A/0 murine mammary carcinoma cells; assay: Cytotoxic effect on FM3A/0 cells; assay type: cell-based; parameters: unit not given beside the values; conditions: Tables 5 and 7, FM3A/0 cells
[11] = test system: HIV-1; assay: Anti-HIV-1 effect in CEM cells; assay type: cell-based; conditions: Human immunodeficiency virus 1, CCRF-CEM
Protocol: as §3, §4, §5

[12] = test system: HIV-2; assay: Anti-HIV-2 effect in CEM cells; assay type: cell-based; conditions: Human immunodeficiency virus 2, CCRF-CEM, read-out: EC50 HIV-2
Protocol: as §3, §4, §5

[13] = Cytotoxic concentration in CEM cells (antiviral tests); assay type: cell-based, human; conditions: human; First and Second Series, second table; viability of CEM cells
Protocol: as §4
(§6) CC50: cytotoxic concentration or concentration required to reduce the viability of the CEM cells by 50%.

[14] = test system: human Molt4/C8 cells; assay: Cytotoxic effect on Molt4/C8 cells; assay type: cell-based; conditions: Tables 5 and 7, Molt4/C8 cells
[15] = test system: HeLa cells; assay: Cytotoxic effect on HeLa cells; assay type: cell-based; parameters: unit not given beside the values; conditions: Tables 5 and 7, HeLa cells
[16] = test system: CEM cells; assay: Cytotoxic concentration in CEM cells (antiviral tests); assay type: cell-based, human; conditions: First and Second Series, second table; viability of CEM cells
Protocol: as §4, §6

[17] = Homo sapiens, MCF7, MCF-7 resistant to gemcitabine
[18] = First and Second Series, second table, read-out: EC50 HIV-1
[19] = Third Series, read-out: EC50 HIV-1
[20] = First and Second Series, second table, CEM cells

SMILES	EC50 [6]	cytotoxic effect, CEM [7]	cytotoxic effect, L1210/0 [8]	EC50 [9]	MIC (minimum inhibitory concentration) [9]	cytotoxic effect, FM3A/0 [10]	EC50 [11, 18]	EC50 [11, 19]	EC50 [12, 20]	EC50 ([12]; Third Series, CEM cells)	EC50 ([3]; Homo sapiens, CCRF-CEM)	CC50 [13]	cytotoxic effect, Molt4/C8 [14]	cytotoxic effect, HeLa [15]	further results
C[Si](C)(C)CCSC1=C[C@@H](CO)O[C@H]1n1ccc(=O)[nH]c1=O [Compound 1, 2′,3′-Didehydro-2′,3′-dideoxy-2′-(2-trimethylsilyl)ethylthiouridine]	–	–	–	–	–	–	–	–	–	–	–	–	–	–	decrease of the incorporation of tritiated thymidine into the DNA ([1]; 50 μM): 38%; tritiated thymidine incorporated as a percentage of the control ([1]; 50 μM): 62%; decrease of the incorporation of tritiated thymidine into the DNA ([1]; 200 μM): 86%; tritiated thymidine incorporated as a percentage of the control ([1]; 200 μM): 14%; CC50 [2]: 69 µM; CC50 ([3]; Homo sapiens, CCRF-CEM): 156 µM; activity at 50 µM ([4]; read-out: dATP concentration, % of control): 50%; activity at 50 µM ([4]; read-out: dCTP concentration, % of control): 42%; activity at 50 µM ([4]; read-out: dGTP concentration, % of control): 31%; activity at 50 µM ([4]; read-out: dTTP concentration, % of control): 85%
Cc1cn([C@@H]2O[C@H](CO)C=C2SCC[Si](C)(C)C)c(=O)[nH]c1=O [Compound 3]	–	–	–	–	–	–	–	–	–	–	–	–	–	–	CC50 [2]: 40 µM; EC50 [5, 17]: 37 µM; EC50 ([5]; MCF-7 resistant to gemcitabine): 41 µM; CC50 ([3]; Homo sapiens, CCRF-CEM): 13 µM
O=c1ccn([C@@H]2O[C@H](CO)C=C2SSC(Cl)(Cl)Cl)c(=O)[nH]1 [Compound 13, 2′,3′-didehydro-2′,3′-dideoxyuridin-2′-yl trichloromethyl disulfide]	–	–	–	–	–	–	–	–	–	–	–	–	–	–	EC50 ([2]; MCF7, Table 4, MCF-7): 194 µM; EC50 [5, 17]: 177 µM; EC50 ([5]; MCF-7 resistant to gemcitabine): 194 µM
Cc1cn([C@H]2CC(SSCCCCCCO)[C@@H](CO)O2)c(=O)[nH]c1=O (some centres unmarked) [Compound 18]	> 50 µM	187 ± 1	44 ± 1	8.3 ± 2.3 µM	>100	≧500	10.3 ± 5.7 µM	22.5 ± 3.5 µM	11.7 ± 2.9 µM	17.5 ± 11 µM	152 µM	107 ± 7 µM	66 ± 9	56 ± 8	EC50 ([11]; read-out: EC50 HIV-1, First and Second Series, first table): 4 µM; EC50 ([12]; First and Second Series, first table, CEM cells): 6.5 ± 0.7 µM
C=CCSS[C@H]1C[C@H](n2cc(C)c(=O)[nH]c2=O)O[C@@H]1CO [Compound 20, 3′-deoxythymidin-3′-yl allyl disulfide]	> 50 µM	128 ± 18	43 ± 5	2.2 ± 0.3 µM	100	299 ± 45	12.5 ± 3.5 µM	17.5 ± 3.5 µM	15 ± 7 µM	20 ± 7 µM	48 µM	53 ± 7 µM	34 ± 6	40 ± 7	EC50 [3]: 46 µM
Cc1cn([C@H]2C[C@H](SSCCO)[C@@H](CO)O2)c(=O)[nH]c1=O [Compound 21, 3′-deoxythymidin-3′-yl 2-hydroxyethyl disulfide]	> 50 µM	347 ± 71	26 ± 3	5.9 ± 0.5 µM	>100	>500	13.5 ± 3 µM	17.5 ± 3.5 µM	14 ± 7 µM	15 ± 7 µM	> 200 µM	> 250 µM	128 ± 33	≧100	–
CCCCSS[C@H]1C[C@H](n2cc(C)c(=O)[nH]c2=O)O[C@@H]1CO [Compound 24, 3′-deoxythymidin-3′-yl butyl disulfide]	> 10 µM	44 ± 1	32 ± 0	1 ± 0.5 µM	100	286 ± 24	8 ± 3 µM	> 10 µM	> 10 µM	> 10 µM	–	–	28 ± 7	23 ± 2	CC50 [16]: 23.3 ± 0.6 µM
Cc1cn([C@H]2C[C@H](SSCCN)[C@@H](CO)O2)c(=O)[nH]c1=O.Cl [Compound 27, 3′-deoxythymidin-3′-yl 2-aminoethyl disulfide hydrochloride]	150 µM	437 ± 71	65 ± 9	–	–	>500	27.5 ± 3.5 µM	20 µM	–	–	–	> 250 µM	163 ± 41	>100	EC50 [12]: 27.5 ± 3.5 µM
NC(=O)NO [Hydroxyurea, hydroxyurea, reference compound]	–	–	–	–	–	–	–	–	–	–	–	–	–	–	activity at 63 µM ([4]; Hydroxyurea control, 63 μM, read-out: dTTP concentration, % of control): 51%
